Test results from patent publication US10358454B2, “Marinopyrrole derivatives and methods of making and using same” (H. LEE MOFFITT CANCER CENTER AND RESEARCH INSTITUTE, INC., priority 2014, dated 2019).
Entries after “also recorded” stand apart in the source; their conditions may differ. Where two headings read alike, the source gives them in different places.

Legend:
[1] = test system: human breast cancer MDA-MB-468 cells; test: Western blotting of MDA-MB-468 cells treated with marinopyrrole derivatives (Mcl-1, Bim, caspase 3); assay type: cell-based; settings: 10 μM for 16 h
Procedure: The cells were then processed for western blotting according to a previously described methods (Balasis M E et al. Clin. Cancer Res. 2011, 17, 2852-2862). […] However, none of the cyclic marinopyrroles were active in intact cells.
(§1) ELISAs were performed using a modified version of a previously described procedure (Doi K et al. J. Biol. Chem. 2012, 287, 10224-10235). Briefly, 40 nM of biotinylated Bim BH3 peptide (Biomatik) in SuperBlock blocking buffer (Pierce) was incubated in high-binding capacity streptavidin-coated plates (Pierce) for 2 h. Compounds were diluted in 120 μl of PBS containing 10 nM of GST-Mcl-1 or GST-Bcl-xL in 1.5 mL tubes for 15 min. Wells were washed with wash buffer (PBS containing 0.05% Tween-20) and then 100 μL of the compound/GST-protein mixture was transferred to the wells. The plates were incubated for 2 h, and then the wells were washed with wash buffer. HRP-conjugated anti-GST antibody (Bethyl Laboratories) was diluted 1:2000 in SuperBlock and 100 μL was transferred to each well. The plate was incubated for 1 h, and then the wells were washed with wash buffer followed by PBS. 100 μL of SureBlue TMB Microwell Peroxidase Substrate (VWR) was added to each well and plates were developed for 5-10 min. 100 μL of 1 N HCl was added to each well to stop the reaction and absorbance was read at 450 nm using a μQuant plate reader (Bio-Tek).

Mcl-1/Bim = Mcl-1/Bim (Homo sapiens, UniProt Q07820); test: Mcl-1/Bim ELISA (GST-Mcl-1 binding to biotinylated Bim BH3 peptide); settings: for selectivity profile Mcl-1 vs Bcl-xL in words: from Mcl-1/Bim and Bcl-xL/Bim ELISA; for fold more potent than (±)-1 (1) against Mcl-1/Bim: relative to (±)-1
Mcl-1/Bim, sequence (Q07820 whole entry): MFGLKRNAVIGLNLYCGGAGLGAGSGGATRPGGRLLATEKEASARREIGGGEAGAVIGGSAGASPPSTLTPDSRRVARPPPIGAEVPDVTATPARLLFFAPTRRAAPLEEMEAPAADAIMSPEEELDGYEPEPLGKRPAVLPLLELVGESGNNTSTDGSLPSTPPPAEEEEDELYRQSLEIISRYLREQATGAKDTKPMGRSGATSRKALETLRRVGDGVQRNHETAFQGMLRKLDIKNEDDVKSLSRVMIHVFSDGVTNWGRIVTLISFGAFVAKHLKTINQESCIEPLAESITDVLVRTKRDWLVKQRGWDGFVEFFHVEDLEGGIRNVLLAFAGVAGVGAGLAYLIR
Procedure: as §1
(§2) ELISAs were performed using a similar procedure as previously described (Doi K, et al. J. Biol. Chem. 2012, 287, 10224-10235). Briefly, 40 nM of biotinylated Bim BH3 peptide (Biomatik) in SuperBlock blocking buffer (Pierce) was incubated in high-binding capacity streptavidin-coated plates (Pierce) for 2 h. Compounds were diluted in 120 μl of PBS containing 10 nM of GST-Mcl-1 or GST-Bcl-xL in 1.5 mL tubes for 15 min. Wells were washed with wash buffer (PBS containing 0.05% Tween-20) and then 100 μL of the compound/GST-protein mixture was transferred to the wells. The plates were incubated for 2 h, and then wells were washed with wash buffer. HRP-conjugated anti-GST antibody (Bethyl Laboratories) was diluted 1:2000 in SuperBlock and 100 μL was transferred to each well. The plate was incubated for 1 h, and then wells were washed with wash buffer followed by PBS. 100 μL of SureBlue TMB Microwell Peroxidase Substrate (VWR) was added to each well and plates were developed for 5-10 min. 100 μL of 1 N HCl was added to each well to stop the reaction and absorbance was read at 450 nm using μQuant plate reader (Bio-Tek).

[2] = test system: cultured human cancer cells; test: Induction of apoptosis in cultured human cancer cells; assay type: cell-based; settings: intact cell studies
Bcl-xL/Bim = Bcl-xL/Bim (Homo sapiens, UniProt Q07817); test: Bcl-xL/Bim ELISA (GST-Bcl-xL binding to biotinylated Bim BH3 peptide); settings: for fold more potent than (±)-1 (1) against Bcl-xL/Bim: relative to (±)-1
Bcl-xL/Bim, sequence (Q07817 whole entry): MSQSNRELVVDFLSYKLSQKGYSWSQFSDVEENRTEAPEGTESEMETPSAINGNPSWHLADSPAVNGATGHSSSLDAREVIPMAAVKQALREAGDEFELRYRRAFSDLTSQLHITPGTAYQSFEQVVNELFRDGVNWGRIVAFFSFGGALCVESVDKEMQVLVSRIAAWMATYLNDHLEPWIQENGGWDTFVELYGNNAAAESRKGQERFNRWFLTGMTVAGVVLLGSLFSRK
Procedure: as §1, §2

Solubility = settings: aqueous solubility
[3] = Table 2-B, n ≥ 3, read-out: Mcl-1/Bim IC50 (average ± SEM)
[4] = Table 3-A structure I, Mcl-1 at 10 nM, n ≥ 3, read-out: Mcl-1-Bim IC50 (average ± SEM)
[5] = read-out: IC50 to inhibit the binding of Mcl-1 to Bim
[6] = Table 2-B, n ≥ 3 unless specified, read-out: Bcl-xL/Bim IC50 (average ± SEM)
[7] = Table 3-A structure I, Bcl-xL at 10 nM, n ≥ 3, read-out: Bcl-xL-Bim IC50 (average ± SEM)
[8] = read-out: IC50 to inhibit Bcl-xL/Bim binding
[9] = Table 1, Mcl-1 at 10 nM, n ≥ 3, read-out: Mcl-1-Bim IC50 (average ± SEM)
[10] = Table 1, Bcl-xL at 10 nM, n ≥ 3, read-out: Bcl-xL-Bim IC50 (average ± SEM)
[11] = Table 3-C structure IV, n ≥ 3, read-out: Mcl-1-Bim IC50 (average ± SEM)
[12] = Table 3-C structure IV, n ≥ 3 (IV-1: n = 2), read-out: Bcl-xL-Bim IC50 (average ± SEM)

Row | IC50 (Mcl-1/Bim; [3]) | IC50 (Bcl-xL/Bim; [7]) | IC50 (Bcl-xL/Bim; [8]) | IC50 (Mcl-1/Bim; [9]) | IC50 (Bcl-xL/Bim; [10]) | SMILES | effect on levels of Mcl-1 and Bim and cleavage of caspase 3 [1] | induction of apoptosis [2] | IC50 (Bcl-xL/Bim; [6]) | further results
1 |  |  |  |  |  | O=C(c1ccccc1O)c1[nH]c(Cl)c(Cl)c1-n1c(C(=O)c2ccccc2O)cc(Cl)c1Cl (single isomer, unassigned) [(−)-1, reference compound] | able to decrease Mcl-1 and Bim and to cleave caspas 3 |  |  | 
2 |  |  |  |  |  | C=Cc1ccc(C(=O)c2[nH]c(Cl)c(Cl)c2-n2c(C(=O)c3ccc(C=C)cc3O)cc(Cl)c2Cl)c(O)c1 [Compound 1-4, (4,4′,5,5′-Tetrachloro-1′H-1,3′-bipyrrole-2,2′-diyl)bis((2-hydroxy-4-vinylphenyl)methanone)] |  | induced apoptosis |  | selectivity profile Mcl-1 vs Bcl-xL in words (Mcl-1/Bim): dual Mcl-1 and Bcl-XL antagonists
3 | 2.1 ± 0.5 µM | 3.9 ± 1.3 µM |  |  |  | CCc1ccc(C(=O)c2[nH]c(Cl)c(Cl)c2-n2c(C(=O)c3ccc(CC)cc3O)cc(Cl)c2Cl)c(O)c1 [Compound 1-5, (4,4′,5,5′-Tetrachloro-1′H-1,3′-bipyrrole-2,2′-diyl)bis((4-ethyl-2-hydroxyphenyl)methanone)] |  | induced apoptosis | 3.9 ± 1.2 µM | IC50 (Mcl-1/Bim; [4]): 2.1 ± 0.5 µM; selectivity profile Mcl-1 vs Bcl-xL in words (Mcl-1/Bim): dual Mcl-1 and Bcl-XL antagonists; IC50 (Mcl-1/Bim; [5]): 2.1 µM
4 |  | > 100 µM | > 100 µM |  |  | COC(=O)c1ccc(C(=O)c2[nH]c(Cl)c(Cl)c2-n2c(C(=O)c3ccc(C(=O)OC)cc3O)cc(Cl)c2Cl)c(O)c1 [Compound I-17, Dimethyl-4,4′-(4,4′,5,5′-tetrachloro-1′H-[1,3′-bipyrrole]-2,2′-dicarbonyl)bis(3-hydroxybenzoate)] | significant decrease in the levels of Mcl-1 and Bim, and cleavage of caspase 3 |  |  | activity against Mcl-1/Bim in words (Mcl-1/Bim): showed activity; IC50 (Mcl-1/Bim; [4]): 16.9 ± 2.3 µM
5 |  | > 100 µM |  |  |  | O=C(O)c1ccc(C(=O)c2[nH]c(Cl)c(Cl)c2-n2c(C(=O)c3ccc(C(=O)O)cc3O)cc(Cl)c2Cl)c(O)c1 [Compound I-18, 4,4′-(4,4′,5,5′-Tetrachloro-1′H-[1,3′-bipyrrole]-2,2′-dicarbonyl)bis(3-hydroxybenzoic acid)] | did not decrease Mcl-1 and Bim, and resulted in little caspase 3 cleavage |  |  | IC50 (Mcl-1/Bim; [4]): 61.4 ± 7.6 µM; activity against Mcl-1/Bim in words (Mcl-1/Bim; listed as 7a): lower activity than 1; also recorded: less active; solubility in words (Solubility): improvement in aqueous solubility; activity against Bcl-xL/Bim in words (Bcl-xL/Bim; listed as 7a): little activity; also recorded: less active
6 |  |  |  | 1.4 ± 0.3 µM | 2.3 ± 1.1 µM | O=C1c2ccc(OS(=O)(=O)C(F)(F)F)cc2Oc2c(Cl)cc(C(=O)c3ccc(OS(=O)(=O)C(F)(F)F)cc3O)n2-c2c1[nH]c(Cl)c2Cl [IV-1, 3-Hydroxy-4-(2,3,7-trichloro-13-oxo-10-(((trifluoromethyl)sulfonyl)oxy)-1,13 dihydrobenzo[g]di-pyrrolo[2,1-b:3′,2′-d][1,3]oxazocine-5-carbonyl)phenyl trifluoromethanesulfonate] |  |  |  | fold more potent than (±)-1 (1) against Mcl-1/Bim (Mcl-1/Bim): six; fold more potent than (±)-1 (1) against Bcl-xL/Bim (Bcl-xL/Bim): seven-fold
7 | 8 ± 1.6 µM |  |  | 42.5 ± 6 µM | > 100 µM | O=C1c2ccc(O)cc2Oc2c(Cl)cc(C(=O)c3ccc(O)cc3O)n2-c2c1[nH]c(Cl)c2Cl [IV-2, 2,3,7-Trichloro-5-(2,4-dihydroxybenzoyl)-10-hydroxybenzo[g]dipyrrolo[2,1-b:3′,2′-d][1,3]oxazo-cin-13(1H)-one] |  |  | 9.5 ± 2.2 µM | IC50 (Mcl-1/Bim; [11]): 8 ± 1.6 µM; selectivity profile Mcl-1 vs Bcl-xL in words (Mcl-1/Bim): dual Mcl-1 and BclxL antagonists; IC50 (Bcl-xL/Bim; [12]): 9.5 ± 2.2 µM
8 |  |  | > 100 µM | > 100 µM | > 100 µM | O=C1c2ccc(P(=O)(O)O)cc2Oc2c(Cl)cc(C(=O)c3ccc(P(=O)(O)O)cc3O)n2-c2c1[nH]c(Cl)c2Cl [IV-6, 3-Hydroxy-4-(2,3,7-trichloro-13-oxo-10-phosphoryl-1,13-dihydrobenzo[g]dipyrrolo[2,1-b:3′,2′-d][1,3]oxazocine-5-carbonyl) phosphonic acid] |  |  |  | IC50 (Mcl-1/Bim; [5]): > 100 µM
9 |  |  |  |  |  | COc1ccccc1C(=O)c1c(-n2c(C(=O)c3ccccc3OC)cc(Cl)c2Cl)c(Cl)c(Cl)n1C [VI-11] |  | induced apoptosis |  | selectivity for Mcl-1 over Bcl-xL (Mcl-1/Bim over Bcl-xL/Bim) (Mcl-1/Bim; ratio of ELISA IC50 values): 4.2 fold
10 | > 100 µM |  | 7.1 µM |  |  | Cn1c(Cl)c(Cl)c(-n2c(C(=O)c3ccccc3O)cc(Cl)c2Cl)c1C(=O)c1ccccc1O [VI-12] |  | induced apoptosis |  | IC50 (Mcl-1/Bim; Table 3-E structure VI, n ≥ 3, read-out: Mcl-1-Bim IC50 (average ± SEM)): > 100 µM; IC50 (Mcl-1/Bim; [5]): > 100 µM; selectivity for Bcl-xL over Mcl-1 (Bcl-xL/Bim; ratio of ELISA IC50 values): 12.7 fold

Row | SMILES | IC50 (Mcl-1/Bim; [3]) | IC50 (Bcl-xL/Bim; [7]) | IC50 (Bcl-xL/Bim; [8]) | IC50 (Mcl-1/Bim; [9]) | IC50 (Bcl-xL/Bim; [10]) | effect on levels of Mcl-1 and Bim and cleavage of caspase 3 [1] | induction of apoptosis [2] | IC50 (Bcl-xL/Bim; [6]) | further results
11 | CCOP(=O)(OCC)c1ccc(C(=O)c2[nH]c(Cl)c(Cl)c2-n2c(C(=O)c3ccc(P(=O)(OCC)OCC)cc3O)cc(Cl)c2Cl)c(O)c1 [Compound I-19, tetraethyl((4,4′,5,5′-tetrachloro-1′H-[1,3′-bipyrrole]-2,2′-dicarbonyl)bis(3-hydroxy-4,1-phenylene))bis(phosphonate)] |  | > 100 µM | > 100 µM |  |  | little effect on Mcl-1, Bim or caspase 3 |  |  | IC50 (Mcl-1/Bim; read-out: Mcl-1-Bim IC50 (average ± SEM)): 7.7 ± 2.2 µM
12 | COC(=O)c1ccc(C(=O)c2cc(Cl)c3n2-c2c([nH]c(Cl)c2Cl)C(=O)c2ccc(C(=O)OC)cc2O3)c(O)c1 [IV-3, Methyl-2,3,7-trichloro-5-(2-hydroxy-4-(methoxycarbonyl)benzoyl)-13-oxo-1,13-dihydrobenzo[g]-dipyrrolo[2,1-b:3′,2′-d][1,3]oxazocine-10-carboxylate] | 4.1 ± 1.4 µM |  |  | 4.3 ± 1.5 µM | 3.4 ± 0.9 µM |  |  | 10.1 ± 2.2 µM | IC50 (Mcl-1/Bim; [11]): 4.1 ± 1.4 µM; fold more potent than (±)-1 (1) against Mcl-1/Bim (Mcl-1/Bim): two-fold; activity against Bcl-xL/Bim in words (Bcl-xL/Bim): slight increase in potency; IC50 (Bcl-xL/Bim; [12]): 10.1 ± 2.2 µM; fold more potent than (±)-1 (1) against Bcl-xL/Bim (Bcl-xL/Bim): seven-fold
13 | O=C(O)c1ccc(C(=O)c2cc(Cl)c3n2-c2c([nH]c(Cl)c2Cl)C(=O)c2ccc(C(=O)O)cc2O3)c(O)c1 [IV-4, 5-(4-Carboxy-2-hydroxybenzoyl)-2,3,7-trichloro-13-oxo-1,13-dihydrobenzo[g]dipyrrolo[2,1-b:3′,2′-d][1,3]oxazocine-10-carboxylic acid] | 3.9 ± 1.1 µM |  |  | 66.6 ± 2.6 µM | > 100 µM |  |  | 18.3 ± 3 µM | IC50 (Mcl-1/Bim; [11]): 3.9 ± 1.1 µM; IC50 (Bcl-xL/Bim; [12]): 18.3 ± 3 µM
